Literature values, collected in patent publication US20120309847A1, “DOSING REGIMENS AND METHODS FOR TREATING OR PREVENTING PROMYELOCYTIC LEUKEMIA” (NBI Pharmaceuticals, Inc., priority 2011, published 2012).

Key:
APL [1] = conditions: ATRA combined with anthracycline based chemotherapy; cited from earlier work
APL [2] = conditions: enocitabine 100-200 mg/m^2 continuous infusion 7 days combined with daunorubicin i.v. 3 days; cited from earlier work

CC1=C(/C=C/C(C)=C/C=C/C(C)=C/C(=O)O)C(C)(C)CCC1 [ATRA, all-trans retinoic acid]
clinical remission, share of patients (APL [1]): approximately 90%

CCCCCCCCCCCCCCCCCCCCCC(=O)Nc1ccn([C@@H]2O[C@H](CO)[C@@H](O)[C@@H]2O)c(=O)n1 [enocitabine]
long-term disease-free survival (APL [2]): ~30%
